Reference: article PMC4143179 (Journal of Natural Products, 2014)

Legend:
[1] = test system: MDCK-MDR1 cells; settings: transport with versus without verapamil
[2] = test system: MCF7 breast cancer cell line; assay: Antiproliferation assay; type: cell-based
[3] = intravenous or inhaled administration; cited from earlier work
[4] = test system: P-glycoprotein (P-gp); settings: cited from earlier work

## COC(=O)[C@@H]1C[C@H](OC(C)=O)C(=O)[C@H]2[C@@]1(C)CC[C@H]1C(=O)O[C@H](CC3=CC(=O)C(OC)=C(OC)C3=O)C[C@]21C [Compound 14, (2S,4aR,6aR,7R,9S,10aS,10bR)-Methyl 9-Acetoxy-2-[(4,5-dimethoxy-3,6-dioxocyclohexa-1,4-dien-1-yl)methyl]-6a,10b-dimethyl-4,10-dioxododecahydro-1H-benzo[f]isochromene-7-carboxylate]
[1]
  efflux by P-gp (in words): actively effluxed by P-gp

## COC(=O)[C@@H]1C[C@H](OC(C)=O)C(=O)[C@H]2[C@@]1(C)CC[C@H]1C(=O)O[C@H](CC3=CC(=O)C(OC)=CC3=O)C[C@]21C [Compound 15, (2S,4aR,6aR,7R,9S,10aS,10bR)-Methyl 9-Acetoxy-2-[(4-methoxy-3,6-dioxocyclohexa-1,4-dien-1-yl)methyl]-6a,10b-dimethyl-4,10-dioxododecahydro-1H-benzo[f]isochromene-7-carboxylate]
[1]
  efflux by P-gp (in words): actively effluxed by P-gp

## COC(=O)[C@@H]1C[C@H](OC(C)=O)C(=O)[C@H]2[C@@]1(C)CC[C@H]1C(=O)O[C@H](c3ccoc3)C[C@]21C [Salvinorin A, salvinorin A]
[2]
  antiproliferative effects (in words): did not show any detectable antiproliferative effects
[3]
  time to cross the blood–brain barrier: ≤ 1 min
[4]
  P-glycoprotein substrate (in words): substrate for P-glycoprotein
[1]
  efflux by P-gp (in words): actively effluxed by P-gp

## Cn1c(=O)c2c(ncn2C)n(C)c1=O [caffeine]
[1]
  efflux by P-gp (in words): limited efflux by P-gp

## COc1cc2nc(N3CCN(C(=O)c4ccco4)CC3)nc(N)c2cc1OC [prazosin]
[1]
  efflux by P-gp (in words): actively effluxed by P-gp
